# Where “and” joins values, the source holds several entries; their conditions need not be identical. Equal values may be shown once.
# Assay: Pharmacokinetic results from Phase II clinical trial: systemic exposure (plasma cantharidin) after topical application (Example 3)
# Type: in vivo, human
# Description: This example describes pharmacokinetic results from a Phase II clinical trial for the treatment of skin lesion resulting from Molluscum contagiosum. Patients received administrations of the cantharidin composition in Table 2 to Molluscum contagiosum lesions every 21 days for a maximum of 4 sessions or until complete clearance. Blood samples for systemic exposure evaluation were collected on Day 1, prior to the drug application, and 2 (±30 minutes), 6 (±1 hour) and 24 (±3 hours) hours post-application. The average age of the subjects was 7±3.5 years. The average body weight of the subjects was 58±34.6 lb. The average number of lesions per subject was 43.7±24.2.
structure (smiles),measurement,setting,value
C[C@@]12C(=O)OC(=O)[C@]1(C)[C@H]1CC[C@@H]2O1 [cantharidin],plasma concentration of cantharidin,"all subjects, all times sampled (2, 6, 24 hours post-application)",less than 3.3 ng/ml
same,Exposure (plasma concentration of cantharidin),"one line per subject, topical cantharidin composition of Table 2 on molluscum lesions, blood at 2, 6 and 24 hours post-application on Day 1, LLOQ 2.5 ng/ml",<2.5 ng/ml (16×) and 3.3 ng/ml
same,subjects with plasma concentration of cantharidin above the lower limit of quantification (2.5 ng/ml),seventeen subjects,Only one of the seventeen subjects
same,plasma concentration of cantharidin,"subjects as young as 2 years old, having over 100 lesions, having genital lesions, with as many as 2.26 lesions per lb: below LLOQ",< 2.5 ng/mL
